This note sets out measurements from BindingDB's records for PubMed 11306677 (Upr 9023, 2001).

Molecules are shown by their SMILES. Where “and” joins values, the source holds several entries; their conditions need not be identical. Equal entries are not always repeated.

The target in test [1] is Metabotropic glutamate receptor 1 (Rattus norvegicus, UniProt P23385).
Test [2] deals with Metabotropic glutamate receptor 5 (Rattus norvegicus, UniProt P31424).
For test [3], the target named is Metabotropic glutamate receptor 2 (Homo sapiens, UniProt Q14416).
Sequence of Metabotropic glutamate receptor 2 (Q14416 whole entry): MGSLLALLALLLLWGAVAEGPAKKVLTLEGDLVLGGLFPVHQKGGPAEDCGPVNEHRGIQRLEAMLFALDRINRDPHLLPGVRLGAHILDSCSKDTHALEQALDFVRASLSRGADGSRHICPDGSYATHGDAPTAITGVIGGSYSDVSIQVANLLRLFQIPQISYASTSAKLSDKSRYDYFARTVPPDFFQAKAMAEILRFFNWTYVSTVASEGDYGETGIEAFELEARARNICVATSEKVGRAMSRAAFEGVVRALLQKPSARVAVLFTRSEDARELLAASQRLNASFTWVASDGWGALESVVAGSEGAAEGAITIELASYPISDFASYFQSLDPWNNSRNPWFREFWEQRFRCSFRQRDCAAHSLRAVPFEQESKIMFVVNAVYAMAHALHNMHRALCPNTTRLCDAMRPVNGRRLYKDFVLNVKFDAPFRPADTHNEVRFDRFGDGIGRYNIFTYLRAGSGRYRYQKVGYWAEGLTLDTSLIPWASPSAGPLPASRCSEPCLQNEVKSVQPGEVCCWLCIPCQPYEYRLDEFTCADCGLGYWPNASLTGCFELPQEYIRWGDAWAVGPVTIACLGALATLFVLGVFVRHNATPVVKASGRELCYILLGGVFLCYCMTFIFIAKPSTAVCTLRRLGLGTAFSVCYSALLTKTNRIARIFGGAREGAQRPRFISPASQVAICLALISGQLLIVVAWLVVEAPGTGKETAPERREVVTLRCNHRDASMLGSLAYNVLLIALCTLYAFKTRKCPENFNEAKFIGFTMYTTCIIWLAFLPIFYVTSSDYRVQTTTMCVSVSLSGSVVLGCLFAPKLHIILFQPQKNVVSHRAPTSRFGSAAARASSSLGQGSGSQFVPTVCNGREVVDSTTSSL

Sequence of Metabotropic glutamate receptor 5 (P31424 whole entry): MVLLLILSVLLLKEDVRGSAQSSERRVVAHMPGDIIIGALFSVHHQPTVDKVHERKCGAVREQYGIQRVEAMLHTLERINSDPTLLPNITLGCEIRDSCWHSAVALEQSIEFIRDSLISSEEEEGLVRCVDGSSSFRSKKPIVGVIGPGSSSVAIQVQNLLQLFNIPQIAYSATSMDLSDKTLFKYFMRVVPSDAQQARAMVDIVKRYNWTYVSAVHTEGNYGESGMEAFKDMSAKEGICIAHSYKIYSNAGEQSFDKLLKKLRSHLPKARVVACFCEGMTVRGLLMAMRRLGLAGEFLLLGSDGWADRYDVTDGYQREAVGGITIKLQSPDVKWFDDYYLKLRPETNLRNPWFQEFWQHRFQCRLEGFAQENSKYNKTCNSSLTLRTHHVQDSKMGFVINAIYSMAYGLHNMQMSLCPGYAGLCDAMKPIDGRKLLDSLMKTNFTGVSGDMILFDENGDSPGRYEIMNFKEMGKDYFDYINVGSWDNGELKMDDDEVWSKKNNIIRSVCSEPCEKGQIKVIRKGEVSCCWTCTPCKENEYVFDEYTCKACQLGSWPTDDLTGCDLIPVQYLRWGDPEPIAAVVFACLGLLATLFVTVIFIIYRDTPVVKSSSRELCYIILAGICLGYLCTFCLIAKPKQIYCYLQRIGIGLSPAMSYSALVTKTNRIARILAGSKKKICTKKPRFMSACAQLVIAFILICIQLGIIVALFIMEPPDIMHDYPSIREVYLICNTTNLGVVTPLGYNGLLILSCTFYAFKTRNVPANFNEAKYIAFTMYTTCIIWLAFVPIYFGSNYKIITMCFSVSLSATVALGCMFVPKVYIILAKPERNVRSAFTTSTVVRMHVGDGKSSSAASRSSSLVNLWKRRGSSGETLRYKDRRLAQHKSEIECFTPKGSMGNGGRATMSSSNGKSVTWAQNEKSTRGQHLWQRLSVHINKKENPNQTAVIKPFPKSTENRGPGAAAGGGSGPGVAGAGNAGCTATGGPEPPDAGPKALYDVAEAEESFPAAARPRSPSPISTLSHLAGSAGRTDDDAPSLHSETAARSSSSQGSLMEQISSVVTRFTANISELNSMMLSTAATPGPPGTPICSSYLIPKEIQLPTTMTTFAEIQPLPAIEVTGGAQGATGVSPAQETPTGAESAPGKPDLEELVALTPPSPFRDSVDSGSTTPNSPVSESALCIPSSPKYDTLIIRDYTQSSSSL
Sequence of Metabotropic glutamate receptor 1 (P23385 whole entry): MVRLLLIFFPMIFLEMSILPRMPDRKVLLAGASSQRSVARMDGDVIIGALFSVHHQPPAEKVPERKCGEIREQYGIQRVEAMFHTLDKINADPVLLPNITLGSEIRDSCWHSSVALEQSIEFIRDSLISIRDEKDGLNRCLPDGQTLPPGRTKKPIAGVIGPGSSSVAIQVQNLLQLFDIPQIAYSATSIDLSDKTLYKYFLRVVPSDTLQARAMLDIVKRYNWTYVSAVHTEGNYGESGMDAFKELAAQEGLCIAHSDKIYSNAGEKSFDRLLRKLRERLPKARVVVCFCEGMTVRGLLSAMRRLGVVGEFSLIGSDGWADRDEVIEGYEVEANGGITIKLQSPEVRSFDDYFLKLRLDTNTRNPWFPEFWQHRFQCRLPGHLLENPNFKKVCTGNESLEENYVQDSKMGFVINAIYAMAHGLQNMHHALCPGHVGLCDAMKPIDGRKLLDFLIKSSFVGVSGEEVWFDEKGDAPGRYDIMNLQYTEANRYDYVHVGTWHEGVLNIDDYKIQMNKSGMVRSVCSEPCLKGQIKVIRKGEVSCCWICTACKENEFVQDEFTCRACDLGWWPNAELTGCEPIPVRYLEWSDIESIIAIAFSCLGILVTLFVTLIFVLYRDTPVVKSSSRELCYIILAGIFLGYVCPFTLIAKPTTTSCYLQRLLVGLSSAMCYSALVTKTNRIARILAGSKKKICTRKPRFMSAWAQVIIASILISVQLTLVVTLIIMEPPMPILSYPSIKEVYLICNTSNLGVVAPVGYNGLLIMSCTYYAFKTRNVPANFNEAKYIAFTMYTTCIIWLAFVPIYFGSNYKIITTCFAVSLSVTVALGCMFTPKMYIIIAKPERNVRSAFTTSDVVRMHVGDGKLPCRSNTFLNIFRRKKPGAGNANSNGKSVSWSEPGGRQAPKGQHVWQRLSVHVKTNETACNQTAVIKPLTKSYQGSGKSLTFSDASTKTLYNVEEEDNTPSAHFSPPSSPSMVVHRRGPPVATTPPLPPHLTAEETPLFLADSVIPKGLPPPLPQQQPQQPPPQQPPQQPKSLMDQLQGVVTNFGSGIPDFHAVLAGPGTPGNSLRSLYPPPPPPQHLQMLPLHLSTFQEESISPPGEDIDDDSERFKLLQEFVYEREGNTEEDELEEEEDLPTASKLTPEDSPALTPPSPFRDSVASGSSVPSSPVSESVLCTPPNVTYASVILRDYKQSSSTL

Regarding `C=C1C[C@@H]2COC(=O)[C@]2(Cc2ccc3ccccc3c2)C1`, the inhibition constant (Ki) was greater than 10000 nM in test [1]; 240 nM and 500 nM in test [2]; 140 nM in test [3].

By Ki is commonly meant the equilibrium dissociation constant of an inhibitor or competing ligand from its target. Low values mean higher affinity, high ones lower affinity.
